# Reference: patent publication US7834044B2, “Substituted-2-imidazoles” (Hoffman-LaRoche Inc., priority 2006, dated 2010)
# Target: T1, TAAR1 (Mus musculus, UniProt Q923Y8)
# T1 construct: expressed in transfected cells; host or cells: HEK293 (ATCC # CRL-1573), stably transfected with pIRESneo2 expression plasmid; membranes prepared
# Experiment: TAAR1 radioligand binding assay on membranes of stably transfected HEK293 cells
# Conditions: not given
# Procedure: The ability of the compounds of the present invention to bind to TAAR 1 was investigated in accordance with the test given hereinafter.
# The Expand High Fidelity PCR System (Roche Diagnostics) was used with 1.5 mM Mg^2+ and purified PCR products were cloned into pCR2.1-TOPO cloning vector (Invitrogen) following the instructions of the manufacturer. PCR products were subcloned into the pIRESneo2 vector (BD Clontech, Palo Alto, Calif.), and expression vectors were sequence verified before introduction in cell lines.
# For the generation of stably transfected cell lines HEK293 cells were transfected with the pIRESneo2 expression plasmids containing the TAAR coding sequences (described above) with Lipofectamine 2000 (Invitrogen) according to the instructions of the manufacturer, and 24 hours post transfection the culture medium was supplemented with 1 mg/ml G418 (Sigma, Buchs, Switzerland). After a culture period of about 10 days, clones were isolated, expanded and tested for responsiveness to trace amines (all compounds purchased from Sigma) with the cAMP Biotrak Enzyme immunoassay (EIA) System (Amersham) following the non-acetylation EIA procedure provided by the manufacturer.
# Cells at confluence were rinsed with ice-cold phosphate buffered saline without Ca^2+ and Mg^2+ containing 10 mM EDTA and pelleted by centrifugation at 1000 rpm for 5 min at 4° C. The pellet was then washed twice with ice-cold phosphate buffered saline and cell pellet was frozen immediately by immersion in liquid nitrogen and stored until use at −80° C. The cell pellet was then suspended in 20 ml HEPES-NaOH (20 mM), pH 7.4 containing 10 mM EDTA, and homogenized with a Polytron (PT 3000, Kinematica) at 10,000 rpm for 10 seconds. The homogenate was centrifuged at 48,000×g for 30 minutes at 4° C. and the pellet resuspended in 20 ml HEPES-NaOH (20 mM), pH 7.4 containing 0.1 mM EDTA (buffer A), and homogenized with a Polytron at 10,000 rpm for 10 seconds. The homogenate was then centrifuged at 48,000×g for 30 minutes at 4° C. and the pellet resuspended in 20 ml buffer A, and homogenized with a Polytron at 10,000 rpm for 10 seconds. Protein concentration was determined by the method of Pierce (Rockford, Ill.). The homogenate was then centrifuged at 48,000×g for 10 minutes at 4° C., resuspended in HEPES-NaOH (20 mM), pH 7.0 including MgCl2 (10 mM) and CaCl2 ([…]) (buffer B) at 200 μg protein per ml and homogenized with a Polytron at 10,000 rpm for 10 seconds.
# Binding assay was performed at 4° C. in a final volume of 1 ml, and with an incubation time of 30 minutes. […] Non-specific binding was defined as the amount of [^3H]-rac-2-(1,2,3,4-tetrahydro-1-naphthyl)-2-imidazoline bound in the presence of the appropriate unlabelled ligand (10 μM). Competing ligands were tested in a wide range of concentrations (10 pM-30 μM). […] Each experiment was performed in duplicate. All incubations were terminated by rapid filtration through UniFilter-96 plates (Packard Instrument Company) and glass filter GF/C, pre-soaked for at least 2 h in polyethylenimine 0.3%, and using a Filtermate 96 Cell Harvester (Packard Instrument Company). The tubes and filters were then washed 3 times with 1 ml aliquots of cold buffer B. Filters were not dried and soaked in Ultima gold (45 μl/well, Packard Instrument Company) and bound radioactivity was counted by a TopCount Microplate Scintillation Counter (Packard Instrument Company).
# T1 sequence (Q923Y8 whole entry): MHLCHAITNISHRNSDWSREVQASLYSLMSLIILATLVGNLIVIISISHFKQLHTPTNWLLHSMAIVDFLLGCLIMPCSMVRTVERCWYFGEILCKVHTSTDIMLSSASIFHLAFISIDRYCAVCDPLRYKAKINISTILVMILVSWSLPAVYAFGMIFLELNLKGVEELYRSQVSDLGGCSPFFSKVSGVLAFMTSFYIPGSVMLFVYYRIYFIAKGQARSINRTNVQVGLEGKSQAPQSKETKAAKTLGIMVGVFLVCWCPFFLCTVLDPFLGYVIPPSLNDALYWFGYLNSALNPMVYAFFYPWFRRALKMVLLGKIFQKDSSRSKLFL
row,SMILES,Ki
1,"Cc1cccc2c1CCN2Cc1ncc[nH]1 [Example 33, 1-(1H-Imidazol-2-ylmethyl)-4-methyl-2,3-dihydro-1H-indole]",0.125 µM
2,"Cc1cccc2c1N(Cc1ncc[nH]1)CC2 [Example 32, 1-(1H-Imidazol-2-ylmethyl)-7-methyl-2,3-dihydro-1H-indole]",0.173 µM
3,"Clc1cccc2c1CCN2Cc1ncc[nH]1 [Example 17, 4-Chloro-1-(1H-imidazol-2-ylmethyl)-2,3-dihydro-1H-indole]",0.0362 µM
4,"c1ccc(Oc2cccc3c2CCCN3Cc2ncc[nH]2)cc1 [Example 42, 1-(1H-Imidazol-2-ylmethyl)-5-phenoxy-1,2,3,4-tetrahydro-quinoline]",0.0046 µM
5,"COc1cccc2c1N(Cc1ncc[nH]1)CC2 [Example 20, 1-(1H-Imidazol-2-ylmethyl)-7-methoxy-2,3-dihydro-1H-indole]",0.118 µM
6,"CCc1cccc2c1N(Cc1ncc[nH]1)CC2 [Example 15, 7-Ethyl-1-(1H-imidazol-2-ylmethyl)-2,3-dihydro-1H-indole]",0.0435 µM
7,"C[C@@H]1c2ccccc2N(Cc2ncc[nH]2)[C@@H]1C (racemic) [Example 14, (2RS,3RS)-1-(1H-Imidazol-2-ylmethyl)-2,3-dimethyl-2,3-dihydro-1H-indole]",0.196 µM
8,"COc1cccc2c1CCN2Cc1ncc[nH]1 [Example 23, 1-(1H-Imidazol-2-ylmethyl)-4-methoxy-2,3-dihydro-1H-indole]",0.115 µM

# Continued, values first:
row,Ki,SMILES
1,0.055 µM,"Brc1ccc2c(c1)CCN2Cc1ncc[nH]1 [Example 4, 5-Bromo-1-(1H-imidazol-2-ylmethyl)-2,3-dihydro-1H-indole]"
2,0.0289 µM,"c1ccc2c(c1)CCN2Cc1ncc[nH]1 [Example 1, 1-(1H-Imidazol-2-ylmethyl)-2,3-dihydro-1H-indole]"
3,0.035 µM,"Clc1ccc2c(c1)N(Cc1ncc[nH]1)CC2 [Example 16, 6-Chloro-1-(1H-imidazol-2-ylmethyl)-2,3-dihydro-1H-indole]"

# Same assay, conditions: mouse TAAR1; radioligand [3H]-rac-2-(1,2,3,4-tetrahydro-1-naphthyl)-2-imidazoline at 60 nM; 4° C., 30 minutes; read-out: Ki (μM) mouse
row,Ki,SMILES
1,0.0951 µM,"Brc1ccc2c(c1)CCCN2Cc1ncc[nH]1 [Example 25, 6-Bromo-1-(H-imidazol-2-ylmethyl)-1,2,3,4-tetrahydro-quinoline]"
2,0.0513 µM,"c1ccc(COc2cccc3c2CCCN3Cc2ncc[nH]2)cc1 [Example 38, 5-Benzyloxy-1-(1H-imidazol-2-ylmethyl)-1,2,3,4-tetrahydro-quinoline]"
3,0.0557 µM,"Clc1cccc2c1N(Cc1ncc[nH]1)CC2 [Example 24, 7-Chloro-1-(1H-imidazol-2-ylmethyl)-2,3-dihydro-1H-indole]"
4,0.129 µM,"Cc1ccc2c(c1)N(Cc1ncc[nH]1)CC2 [Example 26, 1-(1H-Imidazol-2-ylmethyl)-6-methyl-2,3-dihydro-1H-indole]"

# Same assay, conditions: radioligand binding to TAAR1 membranes; species not stated; read-out: calculated Kd value of the radioligand
row,SMILES,Kd
1,"c1ccc2c(c1)CCCC2C1=NCCN1 (racemic) [[^3H]-rac-2-(1,2,3,4-tetrahydro-1-naphthyl)-2-imidazoline, reference compound]",60 nM
